Patent US10273246B2, “Methods and compositions of substituted 5H-[1,2,5] oxadiazolo [3′,4′:5,6] pyrazino[2,3-B] indole analogs as inhibitors of β-catenin/T-cell factor protein-protein interactions” (University of Utah Research Foundation, priority 2015, dated 2019)
Read-outs that look alike come from different tables or passages of the source.

Assays:
β-catenin/Tcf4 PPI [1] = biological target: T1, β-catenin/Tcf4 PPI (Homo sapiens, UniProt P35222); details: Table 3, known inhibitors, footnotes a, b; read-out: Ki + SD FP; cited from earlier work
T1 sequence (P35222 138-686): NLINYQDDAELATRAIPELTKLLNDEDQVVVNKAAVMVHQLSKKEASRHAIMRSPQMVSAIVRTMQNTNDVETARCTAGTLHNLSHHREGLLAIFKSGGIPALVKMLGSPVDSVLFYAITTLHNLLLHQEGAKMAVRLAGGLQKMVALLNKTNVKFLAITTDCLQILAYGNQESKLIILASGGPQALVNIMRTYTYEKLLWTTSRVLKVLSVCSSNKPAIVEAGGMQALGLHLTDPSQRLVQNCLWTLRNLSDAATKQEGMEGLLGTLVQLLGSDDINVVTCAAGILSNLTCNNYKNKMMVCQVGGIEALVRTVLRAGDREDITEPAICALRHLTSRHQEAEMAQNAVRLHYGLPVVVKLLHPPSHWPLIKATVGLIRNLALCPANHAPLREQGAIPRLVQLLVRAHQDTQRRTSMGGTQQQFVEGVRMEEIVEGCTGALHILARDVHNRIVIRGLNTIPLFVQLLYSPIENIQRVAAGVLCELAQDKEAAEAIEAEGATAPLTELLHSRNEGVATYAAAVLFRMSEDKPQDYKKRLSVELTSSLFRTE

β-catenin/APC-R3 = biological target: T2, β-catenin/APC-R3 (Homo sapiens, UniProt P35222); details: FP selectivity assay, known inhibitors, footnotes a, b; read-out: Ki ± SD β-catenin/APC-R3; cited from earlier work
T2 construct: Wild-type β-catenin and its mutants (residues 138-686) were cloned; 6xHis; made in house; host or cells: E. coli BL21 DE3
T2 sequence (P35222 138-686): T1 sequence (P35222 138-686)

β-catenin/E-cadherin = biological target: T3, β-catenin/E-cadherin (Homo sapiens, UniProt P35222); details: FP selectivity assay, known inhibitors, footnotes a, b; read-out: Ki ± SD β-catenin/E-cadherin; cited from earlier work
T3 construct: Wild-type β-catenin and its mutants (residues 138-686) were cloned; 6xHis; made in house; host or cells: E. coli BL21 DE3
T3 sequence (P35222 138-686): T1 sequence (P35222 138-686)

β-catenin/Tcf4 = biological target: T4, β-catenin/Tcf4 (Homo sapiens, UniProt P35222); details: FP selectivity assay, known inhibitors, footnotes a, b; read-out: Ki ± SD β-catenin/Tcf4; cited from earlier work
T4 sequence (P35222 138-686): T1 sequence (P35222 138-686)

HCT116 cells = assay: MTs cell viability assay, HCT116; assay type: cell-based, human; details: Homo sapiens, HCT-116; MTs cell viability, 72 h; read-out: IC50 ± SD HCT116
Experimental: (§1) Colorectal cancer cell lines, SW480, HT29, an HCT116, and human normal cell line HEK293 were seeded in 96-well plates at 4×10^3 cells/well, maintained overnight at 37° C., and incubated with the tested compounds at various concentrations. Cell viability was monitored after 72 h using a freshly prepared mixture of 1 part phenazine methosulfate (PMS, Sigma) solution (0.92 mg/mL) and 19 parts 3-(4,5-dimethylthiazol-2-yl)-5-(3-carboxymethoxyphenyl)-2-(4-sulfophenyl)-2H-tetrazolium (MTs, Promega) solution (2 mg/mL). Cells were incubated in 10 μL of this solution at 37° C. for 3 h, and A490 was measured. […] Experiments were performed in triplicate.

HT29 cells = assay: MTs cell viability assay, HT29; assay type: cell-based; details: Homo sapiens, HT-29, 72 h, read-out: IC50 ± SD HT29
Experimental: as §1

[2] = system: FOPFlash luciferase (reporter with eight mutant Tcf binding sites); assay type: cell-based, human
Experimental: (§2) FuGENE 6 (E2962, Promega) in a 96-well plate format was used for the transfection of HEK293 and SW480 cells according to the manufacturer's instructions. […] SW480 cells were co-transfected with 60 ng of the TOPFlash or FOPFlash reporter gene and 40 ng pCMV-RL normalization reporter. Cells were cultured in DMEM and 10% fatal bovine serum at 37° C. for 24 h, and different concentrations of inhibitors were then added. After 24 h, the luciferase reporter activity was measured using the Dual-Glo system (E2940, Promega). Normalized luciferase activity in response to the treatment with the inhibitors was compared with that obtained from the cells treated with DMSO. Experiments were performed in triplicate.

[3] = system: canonical Wnt signaling in colorectal cancer SW480 cells; assay: TOPFlash luciferase reporter assay, SW480; assay type: cell-based; details: Homo sapiens, SW480, 24 h, read-out: TOPFlash IC50 ± SD SW480
Experimental: as §2

SW480 cells = assay: MTs cell viability assay, SW480; assay type: cell-based, human; details: Homo sapiens, SW480; MTs cell viability, 72 h; read-out: IC50 ± SD SW480
Experimental: as §1

[4] = system: Wnt/β-catenin target genes in SW480 cells
Experimental: Total RNAs were extracted with TRIzol (Ser. […] The threshold cycle (CT) values were normalized to that of internal reference GAPDH. The primer pairs for human GAPDH were forward: [NT] and reverse: [NT]; for human HPRT forward: [NT] and reverse: [NT]; for human AXIN2 forward: [NT] and reverse: [NT]; for human c-myc forward: [NT] and reverse: [NT]; and for human cyclin D1 forward: [NT] and reverse: [NT]. Experiments were performed in triplicate.

[5] = biological target: T5, β-catenin/Tcf PPI in SW480 cells (Homo sapiens, UniProt P35222); assay: Coimmunoprecipitation assay; assay type: cell-based; details: SW480, 24 h
T5 construct: endogenous in cells; host or cells: SW480
T5 sequence (P35222 2-781 limits assumed): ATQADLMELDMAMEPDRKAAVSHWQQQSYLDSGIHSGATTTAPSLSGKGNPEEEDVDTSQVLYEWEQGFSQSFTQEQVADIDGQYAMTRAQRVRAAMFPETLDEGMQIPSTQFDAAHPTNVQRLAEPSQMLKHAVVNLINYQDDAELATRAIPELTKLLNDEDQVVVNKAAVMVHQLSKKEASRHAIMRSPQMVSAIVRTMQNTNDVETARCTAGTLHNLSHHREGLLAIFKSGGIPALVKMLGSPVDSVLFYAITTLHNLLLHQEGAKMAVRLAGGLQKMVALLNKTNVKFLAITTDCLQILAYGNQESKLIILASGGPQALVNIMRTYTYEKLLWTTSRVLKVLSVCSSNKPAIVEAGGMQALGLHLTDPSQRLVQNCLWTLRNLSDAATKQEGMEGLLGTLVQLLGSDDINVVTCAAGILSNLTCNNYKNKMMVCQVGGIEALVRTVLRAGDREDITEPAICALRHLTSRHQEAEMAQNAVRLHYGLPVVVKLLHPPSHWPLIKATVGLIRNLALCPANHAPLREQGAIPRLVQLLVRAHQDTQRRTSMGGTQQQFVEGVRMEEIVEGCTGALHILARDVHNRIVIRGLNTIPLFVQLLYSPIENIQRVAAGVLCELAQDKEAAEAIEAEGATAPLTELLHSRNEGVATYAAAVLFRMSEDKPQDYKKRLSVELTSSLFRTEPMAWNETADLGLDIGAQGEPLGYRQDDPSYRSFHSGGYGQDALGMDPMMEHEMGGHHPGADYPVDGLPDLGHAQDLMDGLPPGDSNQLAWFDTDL
Experimental: SW480 cells at 1×10^6/mL were treated with different concentrations of 18 for 24 h. Cells were lysed in buffer containing 50 mM Tris, pH 7.4, 150 mM NaCl, 1% Nonidet P-40, 2 mM EDTA, and protease inhibitors. The lysates were preabsorbed to A/G plus agarose (sc-2003, Santa Cruz Biotechnology, Inc.) at 4° C. for 1 h. Preadsorbed lysates were incubated with a specific primary antibody overnight at 4° C. A/G plus agarose was then added to the lysates mixture and incubated for 3 h. The beads were washed 5 times with the lysis buffer at 4° C. The bound protein was eluted by boiling in the SDS sample buffer and loaded onto 8% SDS polyacrylamide gel for electrophoretic analysis. Separated proteins were transferred onto nitrocellulose membranes for immunoblot analysis. The primary antibodies were against fl-catenin (610153, BD Biosciences) and Tcf4 (05-511, Millipore). IRDye 680LT goat anti-mouse IgG (827-11080, LiCOR) was used as the secondary antibody. The images were detected by the Odyssey Infrared Imaging System (LiCOR). Experiments were performed in duplicate.

[6] = system: cyclin D1, c-myc and β-catenin protein expression in SW480 cells; assay: Western blot analysis; assay type: cell-based, human; details: SW480, 24 h
Experimental: SW480 cells at 1×10^6 cells/mL were treated with different concentrations of 18 for 24 h. Cell were lysed in a buffer containing 50 mM Tris (pH 7.4), 150 mM NaCl, 1% Nonidet P-40, 0.5% sodium deoxycholate, 0.1% SDS, and protease inhibitors. After centrifugation at 12,000 rpm for 20 min at 4° C., the supernatant was loaded onto an 8% SDS polyacrylamide gel for electrophoretic analysis. Separated proteins were transferred onto nitrocellulose membranes for immunoblot analysis. The antibodies against c-myc (D84C12, Cell Signaling), cyclin D1 (sc-853, Santa Cruz Biotechnology, Inc.), and β-tubulin (sc-55529, Santa Cruz Biotechnology, Inc) were used. IRDye 680LT goat anti-mouse IgG (827-11080, LiCOR) or IRDye 800CW goat anti-rabbit IgG (827-08365, LiCOR) was used as the secondary antibody. The images were detected by the Odyssey Infrared Imaging System (LiCOR). The Western blot bands were quantified by LI-COR Image Studio Lite 4.0. Experiments were performed in duplicate.

β-catenin/Tcf4 PPI [7] = biological target: T1, β-catenin/Tcf4 PPI; assay: biochemical
Source text: (§3) After β-catenin and fluorescein-Tcf4 form a protein-protein complex, the fluorophore is attached to a high-molecular-weight protein complex (≥60 kDa) and has a low rotational speed when it is excited by plane-polarized light. […] When an inhibitor completely disrupts the β-catenin/fluorescein-Tcf4 PPI, the fluorophore is only attached to Tcf4 (≤6 kDa), and the emitted light after excitation will be largely depolarized due to a high rotational speed of the fluorophore. AlphaScreen is a bead-based assay. […] On laser excitation at 680 nm, the photo sensitizers inside the donor beads convert ambient oxygen to a singlet oxygen state. Only when the donor and acceptor beads are brought within 200 nm can the singlet oxygen molecules diffuse to the acceptor beads, resulting in extensive emission at 570 nm.

β-catenin/Tcf4 PPI [8] = biological target: T1, β-catenin/Tcf4 PPI; details: read-out: Ki ± SD FP; Table 8, resynthesized 18 and derivatives
Source text: as §3

In the case of `COC1=C(CC(C)OC(=O)Oc2ccc(O)cc2)C2c3c(c(O)cc(OC)c3-c3c(OC)cc(O)c4c3C2C(CC(C)OC(=O)c2ccccc2)=C(OC)C4=O)C1=O` (stereo not drawn) [Compound 1], the Ki (β-catenin/Tcf4 PPI [1]) is listed as 18 ± 2.1 µM, the Ki (β-catenin/APC-R3) is listed as 110 ± 0.58 µM and the Ki (β-catenin/E-cadherin) is listed as 38 ± 1.6 µM. For the same compound, the Ki (β-catenin/Tcf4) was 77 ± 9.3 µM.
With `COc1ccc(/C=C2\SC(=S)N(CCCC(=O)O)C2=O)cc1OC` [Compound 9, reference compound] the IC50 (HCT116 cells) was 180 ± 2.9 µM, the IC50 (HT29 cells) was 290 ± 2.4 µM and the “FOPFlash luciferase reporter activity” value ([2]; reference inhibitors) was “inhibited”. For the same compound, the IC50 [3] was 4 ± 0.39 µM and the IC50 (SW480 cells) was 240 ± 2.5 µM.
With `Nc1nonc1C(=O)N/N=C1/c2ccccc2-c2nc3nonc3nc21` [Compound 18, (Z)-4-Amino-N′-(9H-Indeno[1,2-B][1,2,5]Oxadiazolo[3,4-E]Pyrazin-9-ylidene)-1,2,5-Oxadiazole-3-Carbohydrazide] the mRNA expression inhibited ([4]; AXIN2, cyclin D1, c-myc, dose of 2 μM, SW480, 24 h) was “More than 50%”, the “expression of house-keeping gene HPRT” value ([4]; SW480) was “did not affect” and the “expression of AXIN2, cyclin D1, and c-myc (mRNA)” value ([4]; SW480, dose-dependent) was “down-regulated”. For the same compound, the “β-catenin/Tcf PPI in a cellular context” value [5] was “inhibits the β-catenin/Tcf PPI in a dose-dependent manner”, the “concentrations at which FOPFlash luciferase activity was inhibited” value ([2]; HEK293 and SW480 (FIG. 7), off-target effects) was ≥ 5 µM and the “expression level of β-catenin” value [6] was “did not reduce”. For the same compound, the “expression of proteins cyclin D1 and c-myc” value [6] was “significantly reduced”.
For `N#CCn1c2ccccc2c2nc3nonc3nc21` [Compound 34, 2-(5H-[1,2,5]Oxadiazolo[3′,4′:5,6]Pyrazino[2,3-B]Indol-5-yl)Acetonitrile], the Ki (β-catenin/Tcf4 PPI [7]) was > 130 µM and the Ki (β-catenin/Tcf4 PPI [8]) was 240 ± 14 µM.
